Data reported in patent publication US20130210042A1, “DIAGNOSTIC AND PROGNOSTIC METHOD FOR HUMAN TAUOPATHIES” (CONSIGLIO NAZIONALE DELLE RICERCHE, priority 2010, published 2013).
Where two headings read alike, the source gives them in different places. Peptide text beside a SMILES is read from it. * marks the point of attachment. Cbz = O=C(OCc1ccccc1)*; CH2F = FC*

Tests used:
AD patients = settings: cited from earlier work
[1] = test system: dbAMPc/NGF-differentiated human SH-SY5Y human neuroblastoma cells; assay: Generation of the 20-22 kDa NH2 tau fragment in differentiated SH-SY5Y exposed to soluble AD brain extracts (Western blot); assay type: cell-based; settings: 12 h with 1 mg/ml AD brain extract
Source text: FIG. 5. The soluble extracts from AD brain homogenates containing Aβ oligomers induce neurotoxicity and production of the NH2-derived 20-22 kDa tau fragment through the caspase-(s) activation in human differentiated SY5Y. A-B): Biochemical characterization of native Aβ oligomers enriched by crude soluble proteins extracts of AD and age-matched non-demented control brain prepared as reported by, which contained almost no Aβ monomers since the ability of these low-molecular weight species to pass readily through the 10 kDa cutoff filters under the conditions used here. Samples extracted from two different AD brain specimens were pooled and retentates—obtained by 10 kDa cutoff filters (Vivaspin 4 VSO403)—were added to the cell culture at a final concentration of 1 mg/ml. […] Unheated samples were applied on the gel in two different lanes and after transfer the membrane was cut in two equal parts and analyzed in parallel. […] Each data point is the mean±SE (bars) of five independent experiments and statistically significant differences were calculated by paired t-Student's test (*p<0.05; ***p<0.001). […] Each data point is the mean±SE (bars) of three independent experiments and statistically significant differences were calculated by paired t-Student's test (*p<0.05; **p<0.01; ***p<0.001). […]

[2] = test system: adenine nucleotide translocator (ANT-1); settings: in vitro; cited from earlier work
neuronal mitochondria = settings: cited from earlier work; for intracellular ATP bioavailability: ATP synthesized by neuronal mitochondria
[3] = biological target: T1, 20-22 kDa NH2-truncated tau fragment (human, UniProt P10636 26-547); assay: co-immunoprecipitation from synaptosomes with CCP-NH2 tau as bait antibody
T1 construct: Endogenous fragment in human synaptosomes, mitochondria, CSF and STS-treated SH-SY5Y cells; Exact limits not proven; also called NH2htau; NH2 htau fragment
T1 sequence (P10636 other isoform, or with tags, fused parts or gaps limits assumed): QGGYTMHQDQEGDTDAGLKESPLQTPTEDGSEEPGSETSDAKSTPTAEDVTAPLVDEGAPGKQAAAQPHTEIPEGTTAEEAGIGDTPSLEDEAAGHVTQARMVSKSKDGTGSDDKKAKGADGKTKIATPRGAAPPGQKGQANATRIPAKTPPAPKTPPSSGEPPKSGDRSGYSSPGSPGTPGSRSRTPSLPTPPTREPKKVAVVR
Protocol: A): Western blotting comparing synaptosomal proteins (500 μg) from ND, AD (ND, AD) subjects immunoprecipitated (IP) and probed (WB) with CCP—NH₂ tau (NH₂ aa 26-36 of human tau) antiserum. Total proteins extracts (70 μg unbound) from STS-treated (6hSY5Y) neuronal human SY5Y and from AD synaptosomal proteins (INPUT) were also loaded for lane and included as positive internal control of electrophoretic mobility and immunoprecipitation efficiency. It is noteworthy that a NH₂-tau fragment around 20-22 kDa (arrow), but not-full-length proteins running at 55-75 kDa(arrowheads), was efficiently immunoprecipitated by CCP—NH₂ tau antiserum on synaptic-enriched fractions from AD. The asterisk indicate immunoglobulin light chains in immunoprecipitates and no significant cross-reactions with human intact tau iso forms was found in total, un-precipitated proteins. B-F): In C), Western blotting analysis comparing synaptosomal proteins (500 μg) from ND, AD (ND, AD) subjects immunoprecipitated (IP) with CCP—NH₂ tau (NH₂ aa26-36 of human tau) antiserum and probed (WB) with ANT-1 antibody (the least C-terminal 12 amino acids of human neuronal ANT-1). […]
Next the authors analyzed whether ANT-1—the neuronal-specific isoform of ANT protein—was a mitochondrial target of the NH₂htau fragment.

Molecule: Cc1ccc2c(c1)c1c(n2CCc2ccc(C)nc2)CCN(C)C1 [Dimebon]
- duration of improved cognitive performance in AD patients (AD patients): 12-18 months

Molecule: COC(=O)C[C@H](NC(=O)[C@H](C)NC(=O)[C@@H](NC(=O)OCc1ccccc1)C(C)C)C(=O)CF [Z-VADfmk] (Cbz-Val-Ala-Asp(OMe)-CH2F)
- appearance of 20-22 kDa NH2 tau fragment after pre-incubation with protease inhibitor ([1]; 100 μM Z-VADfmk or 20 μM MDL28170): significantly reduced the appearance of 20-22 kDa NH2 tau fragment
- caspase-3 activation (cleaved caspase-3 Western blot) ([1]; 100 μM Z-VADfmk): blocking the caspase-3 activation

Molecule: NH2-26-44 peptide: synthesized NH2-26-44 tau peptide, minimal active moiety of the NH2-26-230 human tau fragment (QGGYTMHQDQEGDTDAGLK)
- ANT-1-mediated ADP/ATP exchange [2]: specifically inhibited the ANT-1-mediated ADP/ATP exchange in a non-competitive manner
- intracellular ATP bioavailability (neuronal mitochondria): reduces the intracellular ATP bioavailability
- intracellular ATP bioavailability (neuronal mitochondria; listed as NH226-44 tau): reduced the intracellular bioavailability of ATP
- mitochondrial oxidative phosphorylation (neuronal mitochondria; in vitro): impairs the mitochondrial oxidative phosphorylation

B1: MnSOD-II (enzyme, human, UniProt P04179 25-222, looked up)
chain: KHSLPDLPYDYGALEPHINAQIMQLHHSKHHAAYVNNLNVTEEKYQEALAKGDVTAQIALQPALKFNGGGHINHSIFWTNLSPNGGGEPKGELLEAIKRDFGSFDKFKEKLTAASVGVQGSGWGWLGFNKERGHLQIAACPNQDPLQGTTGLIPLLGIDVWEHAYYLQYKNVRPDYLKAIWNVINWENVTERYMACKK
notes: also called mitochondrial superoxide dismutase
- binding result [3]: no binding
